The target of test [1] is T1, ferroportin (Homo sapiens, UniProt Q9NP59).
T1 sequence (Q9NP59 1-571): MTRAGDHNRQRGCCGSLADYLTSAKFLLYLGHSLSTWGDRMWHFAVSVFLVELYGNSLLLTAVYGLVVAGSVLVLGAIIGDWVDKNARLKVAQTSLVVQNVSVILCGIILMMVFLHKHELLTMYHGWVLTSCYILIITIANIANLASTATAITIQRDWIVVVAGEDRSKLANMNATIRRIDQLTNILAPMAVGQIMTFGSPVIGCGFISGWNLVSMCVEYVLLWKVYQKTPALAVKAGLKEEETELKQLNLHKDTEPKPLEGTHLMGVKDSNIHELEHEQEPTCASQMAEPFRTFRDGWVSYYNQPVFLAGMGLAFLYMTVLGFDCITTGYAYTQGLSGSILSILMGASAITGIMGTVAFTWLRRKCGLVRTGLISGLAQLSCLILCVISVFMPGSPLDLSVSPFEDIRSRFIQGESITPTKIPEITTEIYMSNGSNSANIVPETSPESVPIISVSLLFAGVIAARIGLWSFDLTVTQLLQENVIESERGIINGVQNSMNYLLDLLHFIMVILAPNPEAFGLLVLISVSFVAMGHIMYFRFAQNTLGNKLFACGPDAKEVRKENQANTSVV
Nature of the test: FPN activity assay: ferroportin-GFP internalization/degradation in HEK293 cells. The test is classed as cell-based. To be noted: ferroportin-GFP internalization/degradation, HEK293 cells; Table 6E; read-out: FPN IC50. Also noted: expressed in transfected cells. On the procedure: Following internalization, the ferroporin protein is degraded.
A retro inverse peptide is a peptide with a reversed sequence in all D amino acids. An example is that Hy-Glu-Thr-His-NH2 becomes Hy-DHis-DThr-DGlu-NH2. The EC50 of these reference compounds for ferroportin internalization/degradation was determined according to the FPN activity assay described above. These peptides served as control standards.

Test [2] deals with T1, ferroportin. Nature of the test: T47D cell-based ferroportin internalization assay in presence of mouse serum albumin (MSA). Also noted: a human breast carcinoma adherent cell line which endogenously expresses ferroportin; host or cells: T47D. To be noted: T47D internalization assay in presence of mouse serum albumin (MSA); Table 6E. The method in brief:
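Peptide potency for inducing ferroportin internalization was measured in T47D cells in the presence of serum albumin. Cells grown in RPMI with fetal bovine serum were seeded in 96-well plates at 80-100 k cells per well in 100 ul and rested overnight. Dilution series of test peptides were preincubated 30 min at room temperature, then added to the cells after the medium was aspirated.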

Starred links: 1 amine or outer side, 2 acyl side, 3 side chain; linkers in the order of their positions; H or OH if unused. Positions of bridges follow the written chain, without caps; N, C: chain ends. Non-standard residues stand in square brackets, D forms with d. Residues, ends and D or L forms follow the SMILES beside them. Groups on a side chain read outwards from the residue. *: point of attachment. C18 diacid = O=C(O)CCCCCCCCCCCCCCCCC(=O)*; Dip = N[C@H](C(=O)O)C(c1ccccc1)c1ccccc1; X6 = O=C([C@H](CC1N=NN=N1)N[*:1])[*:2]; dNMeY = CN[C@H](Cc1ccc(O)cc1)C(=O)O; β3hF = N[C@H](CC(=O)O)Cc1ccccc1; NMeK = CN[C@@H](CCCCN)C(=O)O; Pen = CC(C)(S)[C@H](N)C(=O)O; Isovaleryl = CC(C)CC(=O)*; NMeS = CN[C@@H](CO)C(=O)O; Dap = NC[C@H](N)C(=O)O; AEEA = NCCOCCOCC(=O)O

As a reminder, the IC50 is the concentration at which inhibition is half-maximal. As for `CC(C)CC(=O)N[C@@H](CC1N=NN=N1)C(=O)N[C@H](C(=O)N[C@@H](Cc1cnc[nH]1)C(=O)N[C@H](C(=O)N1CCC[C@H]1C(=O)N[C@H]1CSSC[C@@H](C(=O)N(C)[C@@H](CCCCNC(=O)COCCOCCNC(=O)COCCOCCNC(=O)[C@H](CN)NC(=O)CCCCCCCCCCCCCCCCC(=O)O)C(=O)N[C@H](CC(=O)N[C@H](CCCCN)C(N)=O)Cc2ccccc2)NC1=O)C(c1ccccc1)c1ccccc1)[C@@H](C)O` [compound 288] (Isovaleryl-[X6]TH[Dip]PCC[NMeK]([AEEA-AEEA-Dap-C18 diacid])[β3hF][dK]-NH2; disulfide 6-7), in test [1], the DC50 was 10 to 100 nM. Further, the IC50 in test [2] was 10 to 100 nM.
For `CC(C)CC(=O)N[C@@H](CCC(=O)O)C(=O)N[C@H](C(=O)N[C@@H](Cc1c[nH]cn1)C(=O)N[C@H](C(=O)N1CCC[C@H]1C(=O)N[C@H]1CSSC(C)(C)[C@@H](C(=O)N[C@@H](CCCCNC(=O)COCCOCCNC(=O)COCCOCCNC(=O)[C@H](CN)NC(=O)CCCCCCCCCCCCCCCCC(=O)O)C(=O)N[C@H](CC(=O)N[C@H](CCCCN)C(N)=O)Cc2ccccc2)NC1=O)C(c1ccccc1)c1ccccc1)[C@@H](C)O` [compound 272] (Isovaleryl-ETH[Dip]PC[Pen]K([AEEA-AEEA-Dap-C18 diacid])[β3hF][dK]-NH2; disulfide 6-7), in test [1], the DC50 fell in the range of 10 to 100 nM. In addition, the IC50 in test [2] lay within 10 to 100 nM.
As for `CC(C)CC(=O)N[C@@H](CCC(=O)O)C(=O)N[C@H](C(=O)N[C@@H](Cc1c[nH]cn1)C(=O)N[C@H](C(=O)N1CCC[C@H]1C(=O)N[C@H]1CSSC[C@@H](C(=O)N(C)[C@@H](CCCCNC(=O)COCCOCCNC(=O)COCCOCCNC(=O)[C@H](CN)NC(=O)CCCCCCCCCCCCCCCCC(=O)O)C(=O)N[C@H](CC(=O)N[C@H](CCCCN)C(N)=O)Cc2ccccc2)NC1=O)C(c1ccccc1)c1ccccc1)[C@@H](C)O` [compound 306] (Isovaleryl-ETH[Dip]PCC[NMeK]([AEEA-AEEA-Dap-C18 diacid])[β3hF][dK]-NH2; disulfide 6-7), the DC50 in test [1] fell in the range of 10 to 100 nM. Further, the IC50 in test [2] lay within 10 to 100 nM.
On to `CC(C)CC(=O)N[C@@H](CCC(=O)O)C(=O)N[C@H](C(=O)N[C@@H](Cc1c[nH]cn1)C(=O)N[C@H](C(=O)N1CCC[C@H]1C(=O)N[C@H]1CSSC[C@@H](C(=O)N(C)[C@@H](CCCCNC(=O)COCCOCCNC(=O)COCCOCCNC(=O)[C@H](CN)NC(=O)CCCCCCCCCCCCCCCCC(=O)O)C(=O)N[C@H](CC(=O)N[C@H](CCCCN)C(=O)N(C)[C@H](Cc2ccc(O)cc2)C(N)=O)Cc2ccccc2)NC1=O)C(c1ccccc1)c1ccccc1)[C@@H](C)O` [compound 257] (Isovaleryl-ETH[Dip]PCC[NMeK]([AEEA-AEEA-Dap-C18 diacid])[β3hF][dK][dNMeY]-NH2; disulfide 6-7), for which the DC50 in test [1] was 10 to 100 nM. Also, the IC50 in test [2] lay in the range of 10 to 100 nM.
Take `CC(C)CC(=O)N[C@@H](CCC(=O)O)C(=O)N[C@H](C(=O)N[C@@H](Cc1c[nH]cn1)C(=O)N[C@H](C(=O)N1CCC[C@H]1C(=O)N[C@H]1CSSC[C@@H](C(=O)N(C)[C@@H](CCCCNC(=O)COCCOCCNC(=O)COCCOCCNC(=O)[C@H](CN)NC(=O)CCCCCCCCCCCCCCCCC(=O)O)C(=O)N[C@H](CC(=O)N[C@H](CCCCN)C(=O)N(C)[C@@H](CO)C(N)=O)Cc2ccccc2)NC1=O)C(c1ccccc1)c1ccccc1)[C@@H](C)O` [compound 260] (Isovaleryl-ETH[Dip]PCC[NMeK]([AEEA-AEEA-Dap-C18 diacid])[β3hF][dK][NMeS]-NH2; disulfide 6-7): the DC50 in test [1] was in the range of 10 to 100 nM. For the same compound, the IC50 in test [2] fell in the range of 10 to 100 nM.

The values above are taken from patent US20250277012A1 (Protagonist Therapeutics, Inc., priority 2021, published 2025).
